Experimental data reported in paper PMC10108392, “Rimonabant-Based Compounds Bearing Hydrophobic Amino Acid Derivatives as Cannabinoid Receptor Subtype 1 Ligands” (ACS Medicinal Chemistry Letters, 2023).
“Also recorded” adds a separate entry of the source.

What was measured:
mice [1] = assay: Zymosan-induced paw edema; assay type: in vivo, mouse
Description: Drugs were administered s.c. in the dorsal surface of the right hind paw at the dose of 100 μg/20 μL, 15 min before zymosan. […]
testing. […] Then, the compounds were
Compounds were prepared by freshly diluting
Then, these solutions were injected for
The total time the animal spent licking or biting its paw was calculated.
Then, paw edema was calculated as formerly
Paw volume was quantified using a
Data Analysis and Statistics
Statistically significant differences between
Data were considered statistically
The data and statistical analyses respected the recommendations on experimental design and analysis.

CB1R = biological target: T1, CB1R (Rattus norvegicus, UniProt P20272); assay: [3H]WIN55,212-2 radioligand competition binding assay in rat brain membrane homogenate; conditions: read-out: Ki [3H]WIN55,212-2 binding, 5 nM [3H]WIN55,212-2, ± SEM, n.b. = no binding of ligands was observed
T1 construct: Crude membrane fractions were prepared from the brain; from tissue; host or cells: Wistar rat whole brain, crude membrane fraction
Description: Our novel chemical compounds were tested in vitro for their binding ability, efficacy, and potency on CB1R in rat brain membrane homogenate (Table 2 and SI, Figure S1). CB1Rs are the most abundant G-protein coupled receptors in the rodent and mammalian brain; therefore, this is an appropriate model to characterize our ligands in a more physiological system.
In Vitro Biological Assays
Preparation of Brain Membrane Homogenates
Wistar rats were locally bred and handled according to the EU Directive 2010/63/EU and to the Regulations on Animal Protection (40/2013. (II. 14.) Korm. r.) of Hungary. Crude membrane fractions were prepared from the brain. Brains were quickly removed from the euthanized rats and directly put in an ice-cold 50 mM Tris-HCl buffer (pH 7.4). The collected tissue was then homogenized in 30 volumes (v/w) of an ice-cold buffer with a Braun Teflon-glass homogenizer at the highest rpm. The homogenate was centrifuged at 20,000 × g for 25 min, and the resulting pellet was suspended in the same volume of a cold buffer followed by incubation at 37 °C for 30 min to remove endogenous ligands. Centrifugation was then repeated. The final pellets were taken up in five volumes of a 50 mM Tris-HCl (pH 7.4) buffer containing 0.32 M sucrose and stored at -80 °C. Prior to the experiment, aliquots were thawed and centrifuged at 20,000 ×g for 25 min and then they were resuspended in 50 mM Tris-HCl (pH 7.4), homogenized with a Douncer, followed by the determination of the protein concentration by the method of Bradford. The membrane suspensions were immediately used either in radioligand binding experiments or in [35S]GTPγS functional assays.
Radioligand Competition Binding Assay
Binding experiments were performed at 30 °C for 60 min in a 50 mM Tris-HCl binding buffer (pH 7.4) containing 2.5 mM of EGTA, 5 mM of MgCl2 and 0.5 mg/mL of fatty acid-free BSA in plastic tubes in a total assay volume of 1 mL that contained 0.3-0.5 mg/mL of a membrane protein. Competition binding […]
ligands. […] The incubation […]
was terminated by diluting the samples with an ice-cold wash buffer (50 mM of Tris-HCl, 2.5 mM of EGTA, 5 mM of MgCl2, 0.5% fatty acid free BSA, pH 7.4), followed by repeated washing and rapid filtration through Whatman GF/B glass fiber filters (Whatman Ltd., Maidstone, UK) pre-soaked with 0.1% polyethyleneimine (30 min before the filtration). Filtration was performed with a 24-well Brandel Cell Harvester (Gaithersburg, MD, USA). Filters were air-dried and immersed into Ultima Gold MV scintillation cocktail, and then radioactivity was measured with a TRI-CARB 2100TR liquid scintillation analyzer (Packard, Perkin Elmer, Waltham, MA, USA). […]
The results of the competition binding studies are reported as means ± S.E.M. of at least three independent experiments each performed in duplicate. In competition binding studies, the inhibitory constants (Ki) were calculated from the inflection points of the displacement curves using non-linear least-square curve fitting and the Cheng-Prusoff equation, Ki= […]/(1 + [ligand]/Kd). […]

mice [2] = assay: Hot plate test; assay type: in vivo, mouse; conditions: 10 μg/10 μL i.c.v., 15-120 min
Source text: (§1) In Vivo Biological Assays
The international and national law and policies approved by Italian Ministry of Health were used to comply with all animal care and experimental procedures. Animal studies were advised in compliance with the ARRIVE guidelines and with the recommendations made by EU Directive 2010/63/EU for animal experiments and the Basel declaration including the 3Rs concept. CD-1 male mice (10-14 weeks of age, 25-30 g of weight) were bought from Charles River (Milan, Italy). […]
The test was carried out as previously described. […] Mice were transferred into transparent and individual plastic cages with thick white paper lining the bottom and access to a pre-measured amount of their regular lab chow (2 gr) for the 1-h test. […] The amount of food left in the trial cage, including crumbs, was measured, and the amount consumed was calculated. […]
Thermal nociception (hot-plate test) was assessed with a commercially available apparatus consisting of a metal plate 25x25 cm (Ugo Basile, Italy) heated to a constant temperature of 55.0 ± 0.1 °C, on which a plastic cylinder (20 cm diameter, 18 cm high) was placed. The time of latency (s) was recorded from the moment the animal was placed in the cylinder on the hot plate until it licked its paws or jumped; the cut-off time was 60 s. […] The time course of latency was then determined at 15, 30, 45, 60, 90 and 120 min after compound treatment. […]

mice [3] = assay: Feeding test (food intake); assay type: in vivo, mouse; conditions: 10 mg/kg i.p., 1-h test, vs vehicle
Description: The tested compounds were injected i.p. (10 mg/kg), and after leaving for 30 min to allow the drug assimilation, mice were placed into individual cages with access to a predefined amount of their standard lab chow (2 g) for the 1-h test.
as §1
The international and national law and policies approved by Italian Ministry of Health were used to comply with all animal care and experimental procedures. Animal studies were advised in compliance with the ARRIVE guidelines and with the recommendations made by EU Directive 2010/63/EU for animal experiments and the Basel declaration including the 3Rs concept. CD-1 male mice (10-14 weeks of age, 25-30 g of weight) were bought from Charles River (Milan, Italy). Shortly after their arrival and for at least one week, they were kept in an animal care facility under controlled standard conditions of temperature (21 ± 1 °C), light (from 7:00 AM to 7:00 PM), and relative humidity (60 ± 10%). Access to drinking water and food was assured. All procedures were performed to decrease the number of animals used (n = 7 per group) and their distress.
The test was carried out as previously described. At 24 h before the start of a feeding test, all food was removed from the home cages of mice to be tested. The next day and at least 1 h before the feeding test began, the mice were transported to the laboratory. On test days, the animals were placed in the home cages for 30 min of drug assimilation, during which food was not available. Then compounds were intraperitoneally administered (10 mg/kg). Mice were transferred into transparent and individual plastic cages with thick white paper lining the bottom and access to a pre-measured amount of their regular lab chow (2 gr) for the 1-h test. At the end of 1 h, mice were repositioned into their home cage. The amount of food left in the trial cage, including crumbs, was measured, and the amount consumed was calculated.
Feeding trials normally happened on Tuesdays and Fridays between 12:00 and 14:00 h. […]

T1 sequence (P20272 whole entry): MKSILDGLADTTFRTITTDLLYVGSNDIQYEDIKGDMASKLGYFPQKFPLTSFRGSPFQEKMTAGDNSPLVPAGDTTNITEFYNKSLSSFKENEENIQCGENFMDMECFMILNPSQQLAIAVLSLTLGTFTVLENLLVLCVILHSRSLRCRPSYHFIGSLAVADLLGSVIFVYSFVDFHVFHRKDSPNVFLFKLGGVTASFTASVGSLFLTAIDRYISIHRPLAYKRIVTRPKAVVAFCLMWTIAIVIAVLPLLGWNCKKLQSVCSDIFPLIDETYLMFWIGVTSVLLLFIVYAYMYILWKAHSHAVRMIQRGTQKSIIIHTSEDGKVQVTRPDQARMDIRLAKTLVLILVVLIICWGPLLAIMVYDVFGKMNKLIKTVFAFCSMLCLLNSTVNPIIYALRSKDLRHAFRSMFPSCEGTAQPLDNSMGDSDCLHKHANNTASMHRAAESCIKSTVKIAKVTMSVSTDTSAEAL

In the case of CNC(=O)[C@@H](NC(=O)c1nn(-c2ccc(Cl)cc2)c(-n2cccc2)c1C)C(C)(C)C [Compound 34, RS2691-tLeu-NHCH3], the “anti-inflammatory effect on zymosan-induced paw volume increase” value (mice [1]; 100 μg/20 μL s.c., 15 min before zymosan) is reported as “significantly reduce paw volume increase induced by zymosan from 1 to 4 h; also recorded: reduced the paw volume increase from 1 to 4 h”, the “percentage of paw volume in zymosan-induced hindlimb edema” value (mice [1]; s.c. injection, for 24 h) is reported as “below 75%” and the Ki (CB1R) is reported as 6.9 ± 1.8 nM. For the same molecule, the “anti-nociceptive effect in hot plate test (%MPE)” value (mice [2]) was “strong and long-lasting anti-nociceptive effect; also recorded: more potent than that of the reference compound” and the food intake (mice [3]) was “increase food intake; also recorded: increased the food intake; also recorded: significant orexic effect”.
